Values after ≈ are worked out from the molar mass of the structure shown.
Legend:
[1] = test system: Mycobacterium tuberculosis; assay: Antitubercular activity against Mycobacterium tuberculosis H37Rv assessed as bacterial growth inhibition incubated for 28 days by agar dilution method; assay type: functional; settings: 672 h, time 28 day
[2] = target: T1, Albumin (Homo sapiens, UniProt P02768); assay: Binding affinity to human serum albumin assessed as distance between the acceptor and donor by FRET assay; assay type: ADME; settings: isolated protein
[3] = target: T1, Albumin; assay: Binding affinity to human serum albumin at protein to compound molar ratio of 1:1 by fluorescence spectroscopy; assay type: ADME; settings: isolated protein
[4] = target: T1, Albumin; assay: Binding affinity to human serum albumin assessed as Stem-Volmer quenching constant; assay type: ADME; settings: isolated protein
[5] = target: T1, Albumin; assay: Binding affinity to human serum albumin assessed as binding constant; assay type: ADME; settings: isolated protein
[6] = target: T1, Albumin; assay: Binding affinity to human serum albumin assessed as quenching of intrinsic fluorescence at 2.5 to 15 uM and 298 K by fluorescence spectroscopy; assay type: ADME; settings: isolated protein, dose 2.5-15 µM
[7] = target: T1, Albumin; assay: Binding affinity to human serum albumin assessed as quenching constant; assay type: ADME; settings: isolated protein
[8] = test system: Vero; assay: Cytotoxicity against African green monkey Vero cells assessed as reduction in cell viability measured after 72 hrs by MTT assay; assay type: cell-based; settings: Chlorocebus sabaeus
[9] = target: T1, Albumin; assay: Binding affinity to human serum albumin assessed as critical distance with 50% energy transfer between protein and compound by FRET assay; assay type: ADME; settings: isolated protein

T1 sequence (P02768 whole entry): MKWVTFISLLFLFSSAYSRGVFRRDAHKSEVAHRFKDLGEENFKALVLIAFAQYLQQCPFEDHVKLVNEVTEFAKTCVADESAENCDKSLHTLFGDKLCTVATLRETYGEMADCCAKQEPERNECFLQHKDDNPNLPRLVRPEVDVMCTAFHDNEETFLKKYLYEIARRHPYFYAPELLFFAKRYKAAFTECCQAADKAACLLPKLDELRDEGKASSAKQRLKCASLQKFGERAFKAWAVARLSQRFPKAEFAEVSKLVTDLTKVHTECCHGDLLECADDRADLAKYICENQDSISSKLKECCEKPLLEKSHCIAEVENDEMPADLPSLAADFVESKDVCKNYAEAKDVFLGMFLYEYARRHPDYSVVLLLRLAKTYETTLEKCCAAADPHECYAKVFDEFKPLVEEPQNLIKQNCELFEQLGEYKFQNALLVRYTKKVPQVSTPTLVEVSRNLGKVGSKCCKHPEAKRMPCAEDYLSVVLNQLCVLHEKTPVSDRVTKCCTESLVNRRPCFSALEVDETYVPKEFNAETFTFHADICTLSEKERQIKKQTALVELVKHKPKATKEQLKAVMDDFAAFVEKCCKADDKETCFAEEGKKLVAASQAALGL

Structure (SMILES) | MIC [1] [µM] | Activity [2] [nm] | Activity [3] | KSV [4] | Kb [5] | Activity [6] | Kq [7] | IC50 [8] [µM] | Activity [9] [nm]
NC(=O)c1ccc(-n2cc(CNC(=O)c3c[nH]c(-c4ccccc4)n3)nn2)cc1 | 1.47 (≈ 0.569 µg/mL) | 2.09 | Active | 5.02 10^4L/mol | 2.58 10^3L/mol | Active | 8.36 10^12L/mol/s | 198 | 1.49
COc1ccc(-n2cc(CNC(=O)c3c[nH]c(-c4ccccc4)n3)nn2)cc1 | 10.6 (≈ 3.98 µg/mL) |  |  |  |  |  |  | 388 | 
O=C(NCc1cn(-c2ccc(O)cc2)nn1)c1c[nH]c(-c2ccccc2)n1 | 5.19 (≈ 1.87 µg/mL) |  |  |  |  |  |  | 281 | 
Nc1ccc(-n2cc(CNC(=O)c3c[nH]c(-c4ccccc4)n3)nn2)cc1 | 2.03 (≈ 0.73 µg/mL) | 2.36 | Active | 4.38 10^4L/mol | 2.16 10^3L/mol | Active | 8.11 10^12L/mol/s | 237 | 1.81
Cc1ccc(-n2cc(CNC(=O)c3c[nH]c(-c4ccccc4)n3)nn2)cc1 | 19.5 (≈ 6.97 µg/mL) |  |  |  |  |  |  | 409 | 
NNC(=O)c1ccncc1 [ISONIAZID] | 0.36 (≈ 0.0494 µg/mL) |  |  |  |  |  |  | > 456 | 

Reference: ChEMBL document CHEMBL4706667, “Click synthesis of 1,2,3-triazole based imidazoles: Antitubercular evaluation, molecular docking and HSA binding studies” (Bioorg Med Chem Lett, 2021)
